Results: US4426524A, “Heterocyclic substituted benzyl alcohol, insecticidal ester derivatives, and intermediates” (priority 1982, dated 1984)

How the values were obtained:
[1] = test system: southern armyworm; experiment: Topical application, southern armyworm; type: in vivo, Spodoptera eridania; details: SAW; for Topical % Kill @ 5000 ng/insect: 24 hours
Experimental: (§1) Topical Application: The compounds of this invention were tested for insecticidal activity against various insect species selected from southern armyworm (Spodoptera eridania), Mexican bean beetle, (Epilachna varivestis), milkweed bug (Oncopeltus fasciatus), and cabbage looper (Tricoplusia ni) by applying to the second or third dorsal thoracic segment of each larvae a one microliter droplet containing 5 mg/mL of test compound in acetone (5000 ng/insect). The test was allowed to stand 24 hours after application and was then read to determine the percent kill.
(§2) To determine the LD50 of the compounds, the topical application test was repeated by applying various amounts of toxicant. Also included among the species tested against for this determination were tobacco budworm (Heliothis virescens), beet armyworm (Spodoptera exigua), and boll weevil (Anthonomus grandis).

[2] = test system: boll weevil; experiment: Topical application, boll weevil; type: in vivo, Anthonomus grandis; details: BW
Experimental: as §1, §2

[3] = test system: Mexican bean beetle; experiment: Foliar application, Mexican bean beetle; type: in vivo; details: Epilachna varivestis, MBB, foliar, 48 hours, read-out: Foliar % Kill (ppm)
Experimental: (§3) Foliar Application: The activity of some of the compounds of the invention against various test species selected from pea aphid (Acyrthosiphon pisum), twospotted spider mite (Tetranychus urticae), southern armyworm (Spodoptera eridania), Mexican bean beetle (Epilachna varivestis), and cabbage looper (Tricoplusia ni) was determined by foliar application of the test compound. The test materials were formulated as aqueous solutions containing 10% acetone and 0.25% acetylphenoxypolyethoxyethanol. Activity against pea aphid was determined on English fava bean plants the leaves of which were sprayed to runoff with various concentrations of test solution prior to infestation with adult aphids. Activity against twospotted spider mite was evaluated on pinto bean plants whose leaves were sprayed to runoff with various concentrations of test solution after infestation with adult mites. Activity against the remaining species was evaluated on pinto bean plants whose leaves were sprayed to runoff with various concentrations of test solution before infestation with the appropriate immature insects. Mortality was read approximately 48 hours after treatment.

[4] = test system: cabbage looper; experiment: Topical application, cabbage looper; type: in vivo, Tricoplusia ni; details: CL
Experimental: as §1, §2

[5] = test system: tobacco budworm; experiment: Topical application, tobacco budworm; type: in vivo, Heliothis virescens; details: TBW
Experimental: as §1, §2

[6] = test system: twospotted spider mite; experiment: Foliar application, twospotted spider mite; type: in vivo; details: Tetranychus urticae, TSM, foliar, 48 hours, read-out: Foliar % Kill (ppm)
Experimental: as §3

[7] = test system: milkweed bug; experiment: Topical application, milkweed bug; type: in vivo, Oncopeltus fasciatus; details: MWB; for Topical % Kill @ 5000 ng/insect: 24 hours
Experimental: as §1, §2

[8] = test system: Mexican bean beetle; experiment: Topical application, Mexican bean beetle; type: in vivo, Epilachna varivestis; details: MBB; for Topical % Kill @ 5000 ng/insect: 24 hours
Experimental: as §1, §2

[9] = test system: cabbage looper; experiment: Foliar application, cabbage looper; type: in vivo, Tricoplusia ni; details: Trichoplusia ni, CL, 48 hours, read-out: Foliar % Kill (ppm)
Experimental: as §3

[10] = test system: southern armyworm; experiment: Foliar application, southern armyworm; type: in vivo; details: Spodoptera eridania, SAW, foliar, 48 hours, read-out: Foliar % Kill (ppm)
Experimental: as §3

[11] = test system: pea aphid; experiment: Foliar application, pea aphid; type: in vivo; details: Acyrthosiphon pisum, PA, foliar, 48 hours, read-out: Foliar % Kill (ppm)
Experimental: as §3

[12] = test system: milkweed bug; experiment: Foliar application, milkweed bug; type: in vivo; details: Oncopeltus fasciatus, MWB, 48 hours, read-out: Foliar % Kill (ppm)
[13] = test system: beet armyworm; experiment: Topical application, beet armyworm; type: in vivo, Spodoptera exigua; details: BAW
Experimental: as §1, §2

Cc1c(COC(=O)[C@H]2[C@@H](C=C(Cl)Cl)C2(C)C)cccc1-c1cccs1 (relative stereo) [g, [2-methyl-3-(2-thienyl)phenyl]methyl cis-3-(2,2-dichloroethenyl)-2,2-dimethylcyclopropanecarboxylate]
Topical LD50 [1]: 51 ng/insect
Topical % Kill @ 5000 ng/insect [1]: 100%
Topical LD50 [2]: 21 ng/insect
mortality at 512 ppm [3]: 100%
Topical LD50 [4]: 0.5 ng/insect
Topical LD50 [5]: 107 ng/insect
mortality at 64 ppm ([6]; 64 ppm): 0%
Topical LD50 [7]: 234 ng/insect
Topical % Kill @ 5000 ng/insect [7]: 100%
Topical LD50 [8]: 8 ng/insect
mortality at 80 ppm ([9]; 80 ppm): 100%
mortality at 512 ppm [10]: 100%
mortality at 512 ppm [11]: 100%

Cc1c(COC(=O)[C@@H]2[C@H](C=C(Cl)Cl)C2(C)C)cccc1-c1cccs1 [h, [2-methyl-3-(2-thienyl)phenyl]-methyl 1R-cis-3-(2,2-dichloroethenyl)-2,2-dimethylcyclopropanecarboxylate]
Topical LD50 [1]: 22 ng/insect
mortality at 16 ppm ([3]; 16 ppm): 95%
Topical LD50 [4]: 136 ng/insect
Topical LD50 [5]: 38 ng/insect
mortality at 500 ppm [6]: 100%
Topical LD50 [7]: 64 ng/insect
Topical % Kill @ 5000 ng/insect [7]: 100%
Topical LD50 [8]: 9 ng/insect
Topical % Kill @ 5000 ng/insect [8]: 100%
mortality at 16 ppm ([9]; 16 ppm): 90%
mortality at 6.5 ppm ([10]; 6.5 ppm): 100%
mortality at 500 ppm [11]: 100%

Cc1c(COC(=O)[C@H]2[C@@H](C=C(Br)Br)C2(C)C)cccc1-c1cccs1 (relative stereo) [i, [2-methyl-3-(2-thienyl)phenyl]-methyl cis-3-(2,2-dibromoethenyl)-2,2-dimethylcyclopropanecarboxylate]
Topical LD50 [1]: 55 ng/insect
Topical % Kill @ 5000 ng/insect [1]: 100%
mortality at 32 ppm ([3]; 32 ppm): 90%
Topical LD50 [4]: 371 ng/insect
Topical LD50 [5]: 177 ng/insect
mortality at 500 ppm [6]: 90%
Topical LD50 [7]: 132 ng/insect
Topical % Kill @ 5000 ng/insect [7]: 100%
Topical LD50 [8]: 20 ng/insect
Topical % Kill @ 5000 ng/insect [8]: 100%
mortality at 32 ppm ([9]; 32 ppm): 70%
mortality at 16 ppm ([10]; 16 ppm): 95%
mortality at 500 ppm [11]: 100%

Cc1c(COC(=O)[C@H]2[C@@H](C=C(Cl)C(F)(F)F)C2(C)C)cccc1-c1cccs1 (relative stereo) [e, [2-methyl-3-(2-thienyl)phenyl]-methyl cis-3-(2-chloro-3,3,3-trifluoro-1-propenyl)-2,2-dimethylcyclopropanecarboxylate]
Topical LD50 [1]: 23 ng/insect
Topical % Kill @ 5000 ng/insect [1]: 100%
Topical LD50 [2]: 11 ng/insect
mortality at 512 ppm [12]: 100%
Topical LD50 [4]: 74 ng/insect
Topical LD50 [5]: 43 ng/insect
mortality at 512 ppm [6]: 100%
Topical LD50 [7]: 72 ng/insect
Topical % Kill @ 5000 ng/insect [7]: 100%
Topical LD50 [8]: 7 ng/insect
Topical % Kill @ 5000 ng/insect [8]: 100%
mortality at 24 ppm ([9]; 24 ppm): 95%
mortality at 512 ppm [10]: 100%
mortality at 512 ppm [11]: 100%

CC1(C)[C@H](C=C(Cl)Cl)[C@@H]1C(=O)OCc1cccc(-c2ccsc2)c1 (relative stereo) [d, 3-(3-thienyl)phenylmethyl cis-3-(2,2-dichloroethenyl)-2,2-dimethylcyclopropanecarboxylate]
Topical LD50 [1]: 57 ng/insect
Topical % Kill @ 5000 ng/insect [1]: 100%
Topical LD50 [13]: 3010 ng/insect
Topical LD50 [4]: 2408 ng/insect
mortality at 500 ppm [6]: 100%
Topical LD50 [7]: 1137 ng/insect
Topical % Kill @ 5000 ng/insect [7]: 95%
Topical LD50 [8]: 73 ng/insect
Topical % Kill @ 5000 ng/insect [8]: 100%
mortality at 500 ppm [11]: 100%

Cc1c(COC(=O)[C@H]2[C@H](C=C(Cl)Cl)C2(C)C)cccc1-c1cccs1 (relative stereo) [f, [2-methyl-3-(2-thienyl)phenyl]methyl trans-3-(2,2-dichloroethenyl)-2,2-dimethylcyclopropanecarboxylate]
Topical LD50 [1]: 155 ng/insect
mortality at 512 ppm [3]: 100%
mortality at 512 ppm [6]: 71%
Topical LD50 [7]: 238 ng/insect
Topical % Kill @ 5000 ng/insect [7]: 100%
mortality at 120 ppm ([9]; 120 ppm): 100%
mortality at 512 ppm [10]: 100%
mortality at 512 ppm [11]: 100%
